Our source for the EC50 and IC50 values is patent US20240043417A1, “COMPOUNDS FOR THE TREATMENT OF SARS” (Purdue Research Foundation, priority 2020, published 2024).

Read-outs that look alike come from different tables or passages of the source.

The subject of one test is SARS-CoV-2. As to the kind of experiment: microbe, parasite or virus in culture. The class given is cell-based. The conditions noted are these: Severe acute respiratory syndrome coronavirus 2; read-out: Antiviral EC50 Data.
In a further test the target is SARS-CoV-2 3CLpro (Severe acute respiratory syndrome coronavirus 2 (2019-nCoV) (SARS-CoV-2), UniProt P0DTD1). As to the kind of experiment: SARS-CoV-2 3CLpro enzyme inhibition assay. The class given is biochemical.
The mark [1] stands for this setting: SARS-CoV-2 3CLpro, 10 minutes pre-incubation of enzyme with compound, read-out: Enzyme IC50 Data.

With `CCCO[C@@H]1C[C@@H](C(=O)N[C@@H](C[C@@H]2CCNC2=O)C(=O)c2nc3ccccc3s2)N(C(=O)[C@@H](NC(=O)NC(C)(C)C)C(C)(C)C)C1`, the concentration giving a half-maximal response (EC50) in the test on SARS-CoV-2 lay within 50 to 100 µM. In addition, the IC50 on SARS-CoV-2 3CLpro was 0.1 to 5 µM.

Turning to `CCCO[C@@H]1C[C@@H](C(=O)N[C@@H](CC2CCNC2=O)C(=O)c2nc3ccccc3s2)N(C(=O)C(NC(=O)NC(C)(C)C)C(C)C)C1` (some centres unmarked), the EC50 with SARS-CoV-2 was 50 to 100 µM. Also, on SARS-CoV-2 3CLpro, the IC50 lay within 0.1 to 5 µM.

Turning to `CCCN(CCC)[C@@H]1C[C@@H](C(=O)N[C@@H](C[C@H]2CCNC2=O)C(=O)c2nc3ccccc3s2)N(C(=O)[C@@H](NC(=O)OC(C)(C)C)C(C)(C)C)C1`, the concentration giving a half-maximal response (EC50) in the test with SARS-CoV-2 is 5 to 50 µM. In addition, the IC50 on SARS-CoV-2 3CLpro lay in the range of 0.1 to 5 µM.

In the case of `CCCC(=O)N[C@@H]1C[C@@H](C(=O)N[C@@H](C[C@H]2CCNC2=O)C(=O)c2nc3ccccc3s2)N(C(=O)[C@@H](NC(=O)OC(C)(C)C)C(C)(C)C)C1`, the concentration for a half-maximal effect (EC50) with SARS-CoV-2 was above 100 µM. The compound also displayed an IC50 against SARS-CoV-2 3CLpro of 0.1 to 5 µM.

As to `CC(C)(C)NC(=O)N[C@H](C(=O)N1C[C@H]2[C@@H]([C@H]1C(=O)N[C@@H](C[C@@H]1CCNC1=O)C(=O)c1nc3ccccc3s1)C2(C)C)C(C)(C)C`, the EC50 with SARS-CoV-2 fell in the range of 5 to 50 µM. The same compound came in with an IC50 against SARS-CoV-2 3CLpro of 50 to 100 µM.

As for `CC(C)(C)NC(=O)N[C@H](C(=O)N1C[C@H]2[C@@H]([C@H]1C(=O)N[C@@H](C[C@@H]1CCNC1=O)C(=O)C(=O)NCc1ccccc1)C2(C)C)C(C)(C)C`, the EC50 with SARS-CoV-2 is above 100 µM. For the same compound, the IC50 on SARS-CoV-2 3CLpro is 50 to 100 µM.

Take `CC(C)(C)NC(=O)N[C@H](C(=O)N1C[C@H]2[C@@H]([C@H]1C(=O)N[C@@H](C[C@@H]1CCNC1=O)C(=O)c1nc(-c3ccccc3)cs1)C2(C)C)C(C)(C)C`: the EC50 with SARS-CoV-2 lay in the range of 5 to 50 µM. On SARS-CoV-2 3CLpro, this compound showed a half-maximal inhibitory concentration (IC50) of 5 to 50 µM.

Turning to `CC(C)(C)NC(=O)N[C@H](C(=O)N1C[C@H]2[C@@H]([C@H]1C(=O)N[C@@H](C[C@@H]1CCNC1=O)C(=O)C(N)=O)C2(C)C)C(C)(C)C`, the EC50 with SARS-CoV-2 was above 100 µM.

In the case of `CCCO[C@@H]1C[C@@H](C(=O)N[C@@H](C[C@@H]2CCNC2=O)C(=O)c2nc(-c3ccccc3)cs2)N(C(=O)[C@@H](NC(=O)NC(C)(C)C)C(C)(C)C)C1`, in the test with SARS-CoV-2, the 50% effective concentration (EC50) fell in the range of 5 to 50 µM. At SARS-CoV-2 3CLpro (setting [1]), the IC50 was above 100 µM.

`CCCN(CCC)[C@@H]1C[C@@H](C(=O)N[C@@H](C[C@H]2CCNC2=O)C(=O)c2nc3ccccc3s2)N(C(=O)[C@@H](NC(=O)NC(C)(C)C)C(C)(C)C)C1`: the EC50 in the test with SARS-CoV-2 lay within 5 to 50 µM. Further, the IC50 on SARS-CoV-2 3CLpro (setting [1]) was above 100 µM.

With `CCCC(=O)N[C@@H]1C[C@@H](C(=O)N[C@@H](C[C@H]2CCNC2=O)C(=O)c2nc3ccccc3s2)N(C(=O)[C@@H](NC(=O)NC(C)(C)C)C(C)(C)C)C1`, in the test with SARS-CoV-2, the half-maximal effective concentration (EC50) was above 100 µM. The half-inhibitory concentration (IC50) at SARS-CoV-2 3CLpro was 0.1 to 5 µM.

Regarding `CC(C)(C)NC(=O)N[C@H](C(=O)N1C[C@H](N2CCCC2)C[C@H]1C(=O)N[C@@H](C[C@H]1CCNC1=O)C(=O)c1nc2ccccc2s1)C(C)(C)C`, in the test with SARS-CoV-2, the EC50 is above 100 µM. Further, the IC50 on SARS-CoV-2 3CLpro lay within 5 to 50 µM.

As to `CC(C)(C)NC(=O)N[C@H](C(=O)N1C[C@H](N2CCOCC2)C[C@H]1C(=O)N[C@@H](C[C@H]1CCNC1=O)C(=O)c1nc2ccccc2s1)C(C)(C)C`, the IC50 at SARS-CoV-2 3CLpro (setting [1]) was 0.1 to 5 µM.

On to `CCCN(CCC)[C@@H]1C[C@@H](C(=O)N[C@@H](C[C@H]2CCNC2=O)C(=O)c2nc(-c3ccccc3)cs2)N(C(=O)[C@@H](NC(=O)NC(C)(C)C)C(C)(C)C)C1`, for which the 50% inhibitory concentration (IC50) at SARS-CoV-2 3CLpro (setting [1]) was 0.1 to 5 µM.

For `CC(C)(C)[C@H](NC(=O)NCc1ccncc1)C(=O)N1C[C@H]2[C@@H]([C@H]1C(=O)N[C@@H](C[C@@H]1CCNC1=O)C(=O)c1nc(-c3ccccc3)cs1)C2(C)C`, the IC50 on SARS-CoV-2 3CLpro (setting [1]) was 0.1 to 5 µM.

Turning to `CN(C)[C@@H]1C[C@@H](C(=O)N[C@@H](C[C@@H]2CCNC2=O)C(=O)c2nc(-c3ccccc3)cs2)N(C(=O)[C@@H](NC(=O)NC(C)(C)C)C(C)(C)C)C1`, at SARS-CoV-2 3CLpro (setting [1]), the 50% inhibitory concentration (IC50) lay within 0.1 to 5 µM.

Regarding `CCN(CC)[C@@H]1C[C@@H](C(=O)N[C@@H](C[C@@H]2CCNC2=O)C(=O)c2nc(-c3ccccc3)cs2)N(C(=O)[C@@H](NC(=O)NC(C)(C)C)C(C)(C)C)C1`, at SARS-CoV-2 3CLpro (setting [1]), the IC50 was in the range of 0.1 to 5 µM.

Regarding `CC(C)(C)NC(=O)N[C@H](C(=O)N1C[C@H]2[C@@H]([C@H]1C(=O)N[C@@H](C[C@@H]1CCNC1=O)C(=O)c1nc(-c3ccccc3)co1)C2(C)C)C(C)(C)C`, on SARS-CoV-2 3CLpro (setting [1]), the IC50 was 50 to 100 µM.

On to `CC(=O)OC(C#N)[C@H](CC1CCCNC1=O)NC(=O)[C@@H]1[C@@H]2[C@H](CN1C(=O)C(NC(=O)NC(C)(C)C)C(C)(C)C)C2(C)C` (some centres unmarked), for which the EC50 with SARS-CoV-2 was above 100 µM.

`CCCN(CCC)[C@@H]1C[C@@H](C(=O)NC(C#N)C[C@@H]2CCNC2=O)N(C(=O)[C@@H](NC(=O)C(F)(F)F)C(C)(C)C)C1` (some centres unmarked): the EC50 in the test on SARS-CoV-2 was above 100 µM. The compound also displayed an IC50 on SARS-CoV-2 3CLpro above 100 µM.

Consider `CCCN(CCC)[C@@H]1C[C@@H](C(=O)NC(C#N)C[C@@H]2CCNC2=O)N(C(=O)[C@@H](NC(=O)OC(C)(C)C)C(C)(C)C)C1` (some centres unmarked), for which the concentration giving a half-maximal response (EC50) with SARS-CoV-2 was 5 to 50 µM. In addition, on SARS-CoV-2 3CLpro (setting [1]), the IC50 is above 100 µM.

With `CCCO[C@@H]1C[C@@H](C(=O)NC(C#N)C[C@@H]2CCNC2=O)N(C(=O)[C@@H](NC(=O)NC(C)(C)C)C(C)(C)C)C1` (some centres unmarked), in the test on SARS-CoV-2, the EC50 was above 100 µM. The compound further registered an IC50 on SARS-CoV-2 3CLpro of 50 to 100 µM.

Turning to `CC(C)(C)NC(=O)N[C@H](C(=O)N1C[C@H]2[C@@H]([C@H]1C(=O)NC(C#N)C[C@@H]1CCNC1=O)C2(C)C)C(C)(C)C` (some centres unmarked), the EC50 in the test on SARS-CoV-2 is above 100 µM.

On to `CC(C)(C)[C@H](NC(=O)c1ccccc1)C(=O)N1C[C@H]2[C@@H]([C@H]1C(=O)N[C@H](C#N)C[C@@H]1CCNC1=O)C2(C)C`, for which the EC50 in the test with SARS-CoV-2 was 50 to 100 µM.

On to `CCCO[C@@H]1C[C@@H](C(=O)N[C@@H](C[C@@H]2CCNC2=O)C(=O)c2nc3ccccc3s2)N(C(=O)[C@@H](NC(=O)OC(C)(C)C)C(C)(C)C)C1` [drawing 99], for which the 50% effective concentration (EC50) in the test with SARS-CoV-2 lay in the range of 0.1 to 5 µM. The compound also registered a half-maximal inhibitory concentration (IC50) on SARS-CoV-2 3CLpro of 0.1 to 5 µM.

As for `CCCO[C@@H]1C[C@@H](C(=O)N[C@@H](C[C@@H]2CCNC2=O)C(=O)c2nc3ccccc3s2)N(C(=O)[C@@H](NC(=O)OC(C)(C)C)C(C)(C)C)C1` [drawing 100], the half-maximal inhibitory concentration (IC50) on SARS-CoV-2 3CLpro (read-out: Enzyme IC50 Data, SARS-CoV-2 3CLpro, 10 minutes pre-incubation of enzyme with compound) lay in the range of 0.1 to 5 µM.
